Test results taken from patent US20110008396A1, “COMPOSITIONS AND METHODS FOR TREATING CARDIOVASCULAR CONDITIONS” (Rutgers, the Sate University of New Jersey, priority 2007, published 2011).
Entries after “also recorded” stand apart in the source; their conditions may differ.

What was measured:
THP-1 macrophages [1] = assay: hoxLDL efflux from macrophage cells; type: cell-based, human; settings: GW3965 10^-8 M, NAPs 10^-6 M
Method: THP-1, human monocytes, are grown in suspension, with RPMI medium containing 0.4 mM Ca^2+ and Mg^2+, (ATCC) and supplemented with 10% FBS, in an incubator with 5% CO2 at 37 C and split every four days through centrifugation. The cells are seeded at a concentration of 100,000 cells/cm^2 to continue monocyte cultures and to differentiate the cells into macrophage cells. Once the monocytes have been differentiated into macrophage cells they will become adherent and can be tested. The macrophage cells can not be propagated and will be used within a week of differentiation.
Highly oxidized LDL will be oxidized within five days of each experiment. BODIPY-labeled and unlabeled human plasma derived LDL (Molecular Probes, OR) is oxidized by 18 hours of incubation with 10 uM CuSO4 (Sigma) at 37 C with 5% CO2. (Oorni 1997; Chang 2001) The oxidation will be stopped with 0.01% w/v EDTA after the 18 hours.
The efflux of hoxLDL by macrophage cells was assayed by incubating fluorescently labeled hoxLDL (10 ug/mL) with cells for 2 hours at 37 C and 5% CO2. […] The images were analyzed with Image Pro Plus 5.1 software (Media Cybernetics, San Diego, Calif.) and normalized with cell number and compared to the control sample wherein no NAPs or ligand was administered.

THP-1 macrophages [2] = assay: Efflux of high density lipoproteins (HDL secretion); type: cell-based, human; settings: macrophages pre-loaded with hoxLDL 30 μg/ml, ApoA1 present
Method: In brief, differentiated THP-1 macrophages were pre-incubated with 30 μg/ml highly oxidized LDL at 37° C. in serum-free RPMI 1640 for 24 hr. Next, NAPs at 10^−6 M and 10 ug/mL ApoA1 with or without 10^−7 M GW3965 were added to each well and incubated for a further 24 hours. The cell medium was then removed for analysis using the Biovision HDL and LDL/VLDL Cholesterol Quantification kit (BioVision, CA). The remaining macrophages were lysed using 0.03 g sodium dodecyl sulfate (SDS) in 30 ml sodium hydroxide (NaOH, 0.1N). The protein content was measured with the Modified Lowry protein assay (Pierce, Ill.) and the HDL secretion results were normalized per mg cell protein.

THP-1 macrophages [3] = assay: GW internalization study (multiphoton imaging); type: cell-based, human; settings: 5 hr, polymer 10^-6 M
Method: In brief, differentiated THP-1 macrophages were incubated with NAPs at 10^−6 M and/or 10^−7M GW3965 for 5 hr in serum-free RPMI at 37° C. Cells were washed and fixed and multiphoton imaging to detect internalized GW3965 was performed on a Leica TCS SP2 system (Leica Microsystems, Inc., Exton, Pa.). The cells were illuminated using a titanium: sapphire femtosecond laser with a tunable wavelength from 780 nm to 920 nm (Mai Tai, repetition rate 80 Mhz, 100 fs pulse duration, 800 mW) and 470-500 nm emission.

LXRalpha = settings: GW3965 at concentrations as high as 1*10^-6 M; cited from earlier work
ABCA1 = settings: GW3965 at concentrations as high as 1*10^-6 M; cited from earlier work

In the case of `O=C(O)Cc1cccc(OCCCN(Cc2cccc(C(F)(F)F)c2Cl)CC(c2ccccc2)c2ccccc2)c1` [GW3965], the “hoxLDL efflux (in words)” value (THP-1 macrophages [1]; 5 hours) is reported as “not effective”, the “less hoxLDL within the cells / cholesterol released (efflux) versus nothing administered” value (THP-1 macrophages [1]; hoxLDL 10 ug/mL 2 h, then test condition 5 h) is reported as 4% and the “HDL secreted versus 100 percent baseline (in words)” value (THP-1 macrophages [2]) is reported as “not significantly different”. The “internalization of GW3965 by macrophages (multiphoton images, in words)” value (THP-1 macrophages [3]) was “minimal uptake; also recorded: no drug uptake”, the “LXRalpha increase in HepG2 cells” value (LXRalpha) was no more than 3 fold and the “ABCA1 increase in HepG2 cells” value (ABCA1) was no more than 6 fold.
